The record followed here is patent US12622965B2, “Therapeutical tools and methods using temperature-sensitive receptors for treating blindness” (FRIEDRICH MIESCHER INSTITUTE FOR BIOMEDICAL RESEARCH, priority 2020, dated 2026).

In assay [1] the test system is cone photoreceptors of the rd1 mouse. The assay is described as follows: AAV transduction of rd1 mouse cones after subretinal injection, quantified by immunofluorescence and confocal imaging. In kind it is in vivo. The text has this: The inventors targeted rTRPV1 to cone photoreceptors of the Pde6brd1 (known as rd1) mouse via subretinal injection of adeno-associated virus (AAV) and a photoreceptor-specific promoter (mCar) to restrict expression. Rd1 mice have severe photoreceptor degeneration with complete loss of rod and dysfunctional light-insensitive cone photoreceptors by four weeks of age postnatal (P28). 55±10% of rd1 cones expressed rTRPV1 in the cell membrane (n=12,813 cones mm−2, n=7042 TRPV1 positive cones mm−2, mean±s.d). 98±1.6% of rat TRPV1 positive cells were cones (n=7216 TRPV1 positive cells mm−2, n=7042 TRPV1 positive cones mm−2, mean±s.d).
Ocular injections to deliver AAVs expressing TRP variants and/or functionalized nanorods were performed on 4 week old mice anesthetized with 2.5% isoflurane. A small incision was made with a sharp 30 gauge needle at the nasal corneo-scleral junction and AAV and/or nanorods were co-injected through this incision into the subretinal space using a blunt 5 μL Hamilton syringe held in a micromanipulator. For cone photoreceptor activity monitoring, cone specific AAV-ProA7-GCaMP6s (11) was co-injected subretinally with rTRPV1 and/or nanorods. A maximum volume of 2.5 μL was administered per eye. For primary visual cortex activity monitoring, AAV-pCAG-FLEX2-tTA2 was delivered by intravenous retro-orbital injection as previously described by D. Hillier et al. Nat Neurosci 20, 960-968 (2017) 2 weeks after initial ocular injection of rTRPV1 and nanorods. […]
(§1) A Zeiss LSM 700 laser scanning confocal microscope was used to acquire images of antibody stained cells and tissues with an EC Plan-Neofluar 40×/1.30 oil M27 objective at up to 4 excitation laser lines according to secondary antibody specification. Expression was assessed from 1024×1024 pixel images in a z-stack with 0.75 μm steps. […] AAV transduction was quantified from retinal wholemounts. […] Quantification was performed separately for outer nuclear layer, inner nuclear layer and ganglion cell layer.

Assay [2] has as its system adult human ex vivo retinal explants. Put plainly: AAV transduction of adult human ex vivo retinal explants, quantified by immunofluorescence. In kind it is cell-based. The following applies: CAG promoter, mean±s.d. As for the experimental part:
Finally, the inventors provided NIR sensitivity to in a blind human retina. They targeted rTRPV1 to adult human ex vivo retinal explants, kept alive in culture for eight weeks post mortem. Cultured retinas lose light sensitivity after 16 hours. Using a CAG promoter, a density of 2477±889 rTRPV1 positive photoreceptors was achieved per mm^2 of explant tissue (mean±s.d). 94.5±4.2% of rTRPV1 positive cells were photoreceptors (n=2583 rTRPV1 positive cells mm^−2, n=2477 rTRPV1 positive photoreceptors mm^−2, mean±s.d).
Human retinal tissue was obtained after corneal tissue harvest from adult multi-organ donors with no reported history of eye disease, n=2 eyes from n=2 donors. […] Light responses were recorded from samples 8 weeks post-mortem. […]
as §1

Setting [3] is: AAV, mCar promoter, subretinal injection, mean±s.d.

For the substance “TRPV1.465-6x-His: rat TRPV1 channel with 6x-His epitope tag inserted in the first extracellular loop after amino acid 465; delivered by AAV”, in assay [1] (setting [3]), the “channel (TRPV1 or Ollas) positive cells that were cones” value came out at 98±1.6% and the “rd1 cones expressing the channel in the cell membrane” value is recorded as 55±10%. In addition, the “expression of the 6x-His tag in TRPV1 positive cones” value in assay [1] (rd1 mouse) is recorded as “All TRPV1 positive cones expressed the 6x-His tag”. Besides, the “density of rTRPV1 positive photoreceptors” value in assay [2] (explant tissue) is on record as 2477±889 per mm^2. The “rTRPV1 positive cells that were photoreceptors” value in assay [2] was found to be 94.5±4.2%.
